Patent US20070202120A1, “Yellow Fever Mosquito Deoxyribonucleoside Kinases And Its Use” (priority 2003, published 2007)

What was measured:
[1] = test system: deoxyribonucleoside kinases from Aedes aegypti (PZG318); assay: Nucleoside kinase activity (DE-81 filter paper assay, tritium labelled substrates) in extracts of KY895 cells transformed with PZG318; type: biochemical; settings: for Phosphorylation / activation by the mosquito deoxyribonucleoside kinase (in words): extract of KY895 transformed with PZG318; for Deoxyribonucleoside kinase specific activity in extract: substrate at fixed concentration of 100 μM
Procedure: (§1) This example describes how E. coli KY895 were transformed with the plasmid obtained according to Example 1, in order to express mosquito dNK.
(§2) KY895 cells were transformed by the expression plasmid of Example 1 using standard techniques, e.g. as described by e.g. Sambrook et al. [Sambrook et al.; Molecular Cloning: A Laboratory Manual, Cold Spring Harbor Lab., Cold Spring Harbor, N.Y. 1989].
(§3) Transformed cells were grown to an OD600 nm of 0.5-0.6 in LB/Ampicillin (100 μg/ml) medium at 37° C. and protein expression was induced by addition of 100 μM IPTG. The cells were further grown for 4 h at 25° C. and subsequently harvested by centrifugation. The cell pellet was subjected to sonification in the binding buffer A (20 mM NaPO4 pH 7,3; 150 mM NaCl; 10% Glycerol; and 0.1% Triton X-100) and subjected to centrifugation at 10,000×g for 30 minutes. Cell free extract was used for enzymatic activity assays.
Nucleoside kinase activities were determined by initial velocity measurments based on four time sample by the DE-81 filter paper assay using tritium labelled substrates. The assays were performed as described by Munch-Petersen et al. [Munch-Petersen B, Knecht W, Lenz C, Søndergaard L, Piskur J: Functional expression of a multisubstrate deoxyribonucleoside kinase from Drosophila melanogaster and its C-terminal deletion mutants; J. Biol. Chem. 2000 275 6673-6679].
The protein concentration was determined according to Bradford with BSA as standard protein [Bradford M M: A rapid and sensitive method for the quantitation of microgram quantities of protein utilizing the principle of protein-dye binding; Anal. Biochem. 1976 72 248-254]. SDS-PAGE was done according to the procedure of Laemmli[Laemmil U K: Cleavage of structural proteins during the assembly of the head of bacteriophage T4; Nature 1970 227 680-685], and proteins were visualized by Coomassie staining to verify recombinant protein expression.
The natural deoxyribonucleoside and deoxyribonucleoside analogs were tested at a fixed concentration of 100 μM. The specific activity in each extract is given in mU/ml.

Extracts of KY895 Cells = assay: Nucleoside kinase activity (DE-81 filter paper assay) in control extracts of KY895 cells (cells only, empty vector pGEX-2T); type: biochemical, E. coli; settings: extract of KY895 transformed with pGEX-2T (empty vector); substrate 100 μM; n.d. = not detectable
Procedure: as §1, §2, §3
Nucleoside kinase activities were determined by initial velocity measurments based on four time sample by the DE-81 filter paper assay using tritium labelled substrates. […]
The protein concentration was determined according to Bradford with BSA as standard protein [Bradford M M: A rapid and sensitive method for the quantitation of microgram quantities of protein utilizing the principle of protein-dye binding; Anal. Biochem. 1976 72 248-254]. […]

KY895 = assay: Growth of E. coli KY895 on nucleoside analog plates, controls (cells only, empty vector pGEX-2T); type: cell-based; settings: 24 hours at 37° C.
Procedure: (§4) Deoxyribonucleoside kinases are of interest as suicide-genes to be used in gene-mediated therapy of cancer or viral infections. In this example the potential of the mosquito kinase of the invention to convert different nucleoside analogs are compared to that of the human Herpes simplex virus 1 thymidine kinase (HSV1-TK) in a bacterial test system.
(§5) The experiment was carried out essentially as described by Knecht et al. [Knecht W. Munch-Petersen B and Piskur J: identification of residues involved in the specificity and regulation of the highly efficient multisubstrate deoxyribonucleoside kinase from Drosophila melanogaster; J. Mol. Biol. […] 301 827-837]. Briefly, overnight cultures of transformed KY895 were diluted 200-fold in 10% glyercol and 2 μl drops of the dilutions were spotted on M9 minimal medium plates [Ausubel F, Brent R, Kingston R E, Moore D D, Seldman J G, Smitf J A & Struhl K (Eds.): Short protocols in molecular biology; 3rd edition (1995) pp. 1-2, Wiley, USA] supplemented with 0.2% glucose, 0.1% casamino acids, 100 μg/ml ampicillin and with or without nucleoside analogs. Growth was inspected visually after 24 hours of incubation at 37° C.
pGEX-2T is the empty vector and is available from Amersham-Pharmacia;

[2] = test system: KY895 transformed with PZG318; assay: Growth of transformed E. coli KY895 on nucleoside analog plates, transformed with PZG318 (mosquito dNK kinase); type: cell-based
Procedure: as §4, §5

[3] = test system: KY895 transformed with pGEX-2T-HSV1-TK; assay: Growth of transformed E. coli KY895 on nucleoside analog plates, transformed with pGEX-2T-HSV1-TK; type: cell-based; settings: 24 hours at 37° C.
Procedure: as §4, §5

Compound | Phosphorylation / activation by the mosquito deoxyribonucleoside kinase (in words) [1] | Deoxyribonucleoside kinase specific activity in extract [1] | Deoxyribonucleoside kinase specific activity in extract (Extracts of KY895 Cells) | dFdC LD100 (KY895; KY895 cells only) | dFdC LD100 (KY895; KY895 transformed with pGEX-2T (empty vector)) | LD100 with mosquito dNK kinase (PZG318) lower than that of HSV1-TK ([2]; KY895 on nucleoside analog plates, PZG318 versus HSV1-TK) | dFdC LD100 ([2]; KY895 transformed with PZG318, M9 plates, growth inspected after 24 hours at 37° C.) | dFdC LD100 [3]
Nc1nc2c(ncn2COCCO)c(=O)[nH]1 [ACV, acyclovir] | also activated | 0.3 mU/ml |  |  |  |  |  | 
Nc1nc(O)c2ncn(COC(CO)CO)c2n1 [GCV, gancyclovir] | also activated | 0.7 mU/ml |  |  |  |  |  | 
Cc1cn([C@H]2C[C@H](O)[C@@H](CO)O2)c(=O)[nH]c1=O [Thd, thymidine] | able to phosphorylate | 125 mU/ml |  |  |  |  |  | 
Nc1ncnc2c1ncn2[C@H]1C[C@H](O)[C@@H](CO)O1 [dAdo, deoxyadenosine] | able to phosphorylate | 364 mU/ml |  |  |  |  |  | 
Nc1ccn([C@H]2C[C@H](O)[C@@H](CO)O2)c(=O)n1 [dCyt, deoxycytidine] | able to phosphorylate | 124.5 mU/ml | 0.1 mU/ml |  |  |  |  | 
Nc1ccn([C@@H]2O[C@H](CO)[C@@H](O)C2(F)F)c(=O)n1 [dFdC, 2′,2′-difluorodeoxycytidine] | much stronger than dCyt | 228 mU/ml |  | >100 nM | >100 nM | at least 30 fold | 3.16 nM | >100 nM
Nc1nc2c(ncn2[C@H]2C[C@H](O)[C@@H](CO)O2)c(=O)[nH]1 [dGuo, deoxyguanosine] | able to phosphorylate | 214.7 mU/ml |  |  |  |  |  | 
